For orientation: inhibition means the change of the read-out against control, counted positive when it falls.

One assay relates to Fibroblast growth factor receptor 3 (Homo sapiens), P22607 [S249C]. As to the kind of experiment: Antagonist activity against FGFR3 Ser249Cys mutant in human TCC97-7 cells cultured in serum-supplemented medium assessed as reduction in ATP content at 1 um after 3 days by cell titer-Glo luminescent cell viability assay. Format: cell-based.
Sequence of Fibroblast growth factor receptor 3 (Homo sapiens), P22607 [S249C] (P22607 whole entry S249C): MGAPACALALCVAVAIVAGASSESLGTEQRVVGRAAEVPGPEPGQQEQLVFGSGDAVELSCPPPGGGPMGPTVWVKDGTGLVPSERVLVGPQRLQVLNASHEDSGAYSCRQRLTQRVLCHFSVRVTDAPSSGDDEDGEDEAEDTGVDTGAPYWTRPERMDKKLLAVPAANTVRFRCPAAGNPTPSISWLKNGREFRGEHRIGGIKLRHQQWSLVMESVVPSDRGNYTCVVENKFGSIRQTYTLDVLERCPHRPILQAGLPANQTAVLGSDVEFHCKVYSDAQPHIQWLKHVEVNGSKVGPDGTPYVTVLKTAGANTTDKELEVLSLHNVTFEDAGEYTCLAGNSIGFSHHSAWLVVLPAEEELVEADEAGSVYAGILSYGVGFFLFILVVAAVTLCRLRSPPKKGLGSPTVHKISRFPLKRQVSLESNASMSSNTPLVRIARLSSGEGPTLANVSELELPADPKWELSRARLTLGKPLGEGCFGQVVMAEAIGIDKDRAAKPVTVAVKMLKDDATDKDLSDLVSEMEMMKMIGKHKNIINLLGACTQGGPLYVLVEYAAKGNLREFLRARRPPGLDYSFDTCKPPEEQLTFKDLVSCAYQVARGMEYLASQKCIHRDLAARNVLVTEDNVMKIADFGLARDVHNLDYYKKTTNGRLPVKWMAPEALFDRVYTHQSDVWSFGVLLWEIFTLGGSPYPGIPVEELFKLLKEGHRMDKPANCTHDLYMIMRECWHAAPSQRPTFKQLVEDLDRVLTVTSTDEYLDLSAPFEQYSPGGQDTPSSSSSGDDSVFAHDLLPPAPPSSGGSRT
Details: not given
Background: ATP-based viability assays read luminescence as a measure of living cells.
Consider `Cn1nc(-c2ccccc2)c2c(C(F)(F)F)cc(-c3cccc(C(N)=O)c3)nc21`, for which the inhibition turned out to be 10.9%.

With `O=C(c1cccc(-c2cc(C(F)F)c3c(-c4ccccc4)n[nH]c3n2)c1)N1CCCC1`, the inhibition was 26.9%.

As for `Cn1nc(-c2ccccc2)c2c(C(F)(F)F)cc(-c3ccc(C(=O)O)cc3)nc21`, the inhibition came out at 17%.

The next assay has the same test system. Briefly: Antagonist activity against FGFR3 Ser249Cys mutant in human TCC97-7 cells cultured in serum-supplemented medium assessed as reduction in ATP content at 10 um after 3 days by cell titer-Glo luminescent cell viability assay. Format: cell-based.
Details: not given
Take `O=c1[nH]c2ccc(-c3cc(C(F)(F)F)c4c(-c5ccccc5)n[nH]c4n3)cc2[nH]1`: the inhibition came out at 19%.

For `Cn1nc(-c2ccccc2)c2c(C(F)(F)F)cc(-c3cccc(C(N)=O)c3)nc21`, the inhibition came out at 41.1%.

Consider `O=C(c1cccc(-c2cc(C(F)F)c3c(-c4ccccc4)n[nH]c3n2)c1)N1CCCC1`, for which the inhibition was 90.5%.

As for `Cn1nc(-c2ccccc2)c2c(C(F)(F)F)cc(-c3ccc(C(=O)O)cc3)nc21`, the inhibition was found to be 40%.

Test system in the next assay: not listed separately
Briefly: Inhibition of serum-induced proliferation of human TCC97-7 cells carrying FGFR3 Ser249Cys mutation at 10 uM after 3 days. Format: functional. As to conditions: TCC97-7, 72 h.
As to `O=c1[nH]c2ccc(-c3cc(C(F)(F)F)c4c(-c5ccccc5)n[nH]c4n3)cc2[nH]1`, the inhibition at 10 µM was found to be 29%.

In the case of `Cn1nc(-c2ccccc2)c2c(C(F)(F)F)cc(-c3cccc(C(N)=O)c3)nc21`, the inhibition at 10 µM worked out at 91.6%.

Regarding `O=C(c1cccc(-c2cc(C(F)F)c3c(-c4ccccc4)n[nH]c3n2)c1)N1CCCC1`, the inhibition at 10 µM is 83.9%.

As to `Cn1nc(-c2ccccc2)c2c(C(F)(F)F)cc(-c3ccc(C(=O)O)cc3)nc21`, the inhibition at 10 µM was 33%.

Test system in another assay: not listed separately
As to the kind of experiment: Inhibition of serum-induced proliferation of human TCC97-7 cells carrying FGFR3 Ser249Cys mutation at 1 uM after 3 days. It counts as functional. As to conditions: TCC97-7, 72 h.
As to `O=c1[nH]c2ccc(-c3cc(C(F)(F)F)c4c(-c5ccccc5)n[nH]c4n3)cc2[nH]1`, the inhibition at 1 µM was -3%.

Turning to `Cn1nc(-c2ccccc2)c2c(C(F)(F)F)cc(-c3cccc(C(N)=O)c3)nc21`, the inhibition at 1 µM was found to be 8%.

Take `O=C(c1cccc(-c2cc(C(F)F)c3c(-c4ccccc4)n[nH]c3n2)c1)N1CCCC1`: the inhibition at 1 µM was 16.2%.

As to `Cn1nc(-c2ccccc2)c2c(C(F)(F)F)cc(-c3ccc(C(=O)O)cc3)nc21`, the inhibition at 1 µM was determined as 8%.
